Several values for one entry are separate records, joined by “and”; a condition that tells them apart may be missing. Equal entries are not always repeated. Where two headings read alike, the source gives them in different places.

In experiment [1] the test system is primary culture of astrocytes from the mouse cortex expressing Laconic. Put plainly: Single-cell lactate imaging (Laconic) in primary culture of cortical astrocytes. The experiment is classed as cell-based.
Experimental: Animals used for primary cultures were mixed F1 male mice (C57BL/6J × CBA/J), kept in an animal room under SPF conditions at a room temperature of 20 ± 2°C, in a 12/12-h light/dark cycle and with free access to water and food. Mixed cortical cultures of neuronal and glia cells (1 –to 3-day-old neonates) was cultured in Neurobasal medium (Gibco) supplemented with 5 mM glucose and B27. Cells were seeded on petri dishes and superfused with KRH HEPES pH 7.4. The lactate imaging experiments with single-cell resolution were performed using cultured astrocytes at 11–14 days post-dissection. Real time experiments were performed with KRH HEPES bathing solution containing (in mM) 136 NaCl, 3 KCl, 1.25 CaCl2, 1.25 MgCl2, 10 HEPES/Tris and pH 7.2 at 36°C with 300 mOsm, without carbon sources for mitochondrial toxicant experiments and 2 mM glucose and 1 mM lactate for Warburg index determination. Experiments were performed in upright Olympus FV1000 confocal microscope equipped with a 20X water-immersion objective (numerical aperture, 1.0) and a 440 nm solid-state laser.
To plot the data, we used a ratio between mTFP and Venus channels. This ratio is proportional to lactate levels, since its binding to the sensor produced a decrease in FRET efficiency. This ratio was expressed in two formulas described below: NormalizedΔR=R(mTFP/Venus)/R(mTFP/Venus)min
With the aim of testing if this observation occurs in general and if azide induced-lactate accumulation can be reproduced using another mitochondrial toxicant with a different molecular target, we performed single-cell experiments exposing primary culture of astrocytes from the mouse cortex expressing Laconic (Fig 1A) to different mitochondria inhibitors that block the ETC at different levels (Fig 1C). To take advantage of the maximal dynamic range of the lactate FRET sensor the baseline measurements were performed using buffer without carbon sources to force start the experiments with lactate levels below 100 μM.
Each data point is from an average of ten cells from three independent experiments.
Experiment [2] deals with MDA-MB-231 cells stably expressing the FRET lactate indicator Laconic (MitoTox Reporter). Put plainly: MitoToxy assay: toxicity-induced lactate accumulation in MitoTox Reporter cells, 96-well plate reader, with 50 μM pCMBS. The experiment is classed as cell-based. Conditions: read-out: IC50 (toxicity-induced lactate accumulation, MitoToxy). As for the experimental part:
(§1) MitoTox reporter cell line was cultured in Leibowitz media (Gibco) supplemented with 10% of fetal bovine serum (FBS) at 37°C at atmospheric CO2 levels in a 100 mm petri dish. Once cells reached 100% confluency, they were trypsinized using 5% trypsin (Gibco) and washed in PBS. Viability was determine using trypan blue staining and 10,000 cells were seeded into each well of a 96 well plate. Experiments in 96 well format were performed once cells reached 100% confluency after 6 days, during the incubation media was not replaced. All the plates with signal-to-noise ration below 1.3 for monomeric Teal Fluorescent Protein (mTFP) and Venus channels were discarded. Background signal was determined with KRH buffer without cells. Experiments consisted in washing out the culture media using KRH HEPES buffer containing (mM) 136 NaCl, 3 KCl, 1.25 CaCl2, 1.25 MgCl2, 10 HEPES/Tris and pH 7.2 at 37°C with 300 mOsm. Then 200 μl of KRH HEPES buffer without any carbon sources was added to each well and the baseline was measured (RMIN), then 100 μl of buffer was replaced with mitochondrial toxicant/controls and signal was measured to obtain a stimulated response (RMAX). In experiments were pCMBS was used to block lactate exit, the inhibitor was added simultaneously with the mitochondrial toxicants. Data was collected in triplicated after 5, 10, 30, and 60 minutes of incubation. All the experiments in 96 well plates were performed in an EnVision® multiplate reader (PerkinElmer). Each well was excited at 430 nm and the intensity of mTFP and Venus fluorescence emission were recorded at 485 nm and 528 nm, using a set of filters.
(§2) Where R(mTFP/Venus) min corresponded to the minimal change of mTFP/Venus ratio during the single-cell experiments. Results in 96 well plates experiments were expressed by the ΔR%. This parameter was obtained from the difference between the RMAX and RMIN from the same well (before-after experiment) as follow: ΔR%=(R(mTFP/Venus)max−R(mTFP/Venus)min/R(mTFP/Venus)min)x100

The test system of the next experiment is MitoTox reporter cells. Conditions: 32 μM rotenone, 16 μM antimycin, 5 mM azide, 80 μM oligomycin, 10 μM myxothiazol; 5, 10, 30, 60 minutes; 37°C. As for the experimental part:
as §1, with “Experiments consisted in washing out the culture media using KRH HEPES buffer containing (mM) 136 NaCl, 3 KCl, 1.25 CaCl2, 1.25 MgCl2, 10 HEPES/Tris and pH 7.2 at 37°C with 300 mOsm.” left out, “In experiments were pCMBS was used to block lactate exit, the inhibitor was added simultaneously with the mitochondrial toxicants. Data was collected in triplicated after 5, 10, 30, and 60 minutes of incubation.” left out, “filters. […]” for “filters.”

Experiment [3] relates to mitochondrial membrane potential (MMP). Conditions: treatment time 6 hours; ref Li et al., 2014 [50]; read-out: IC50, MMP; cited from earlier work.
Experiment [4] relates to HepG2 cells. Set-up: method as in PMID 22689143. Conditions: Seahorse technology, read-out: Concentration required to change the OCR and ECAR by 50%; cited from earlier work.
For experiment [5], the system named is MitoTox Reporter cells (MDA-MB-231 expressing Laconic). Put plainly: Pilot screening of 13 compounds with MitoTox Reporter cells, multiplate reader. The experiment is classed as cell-based. Conditions: for ΔR% (lactate accumulation): average of 4 replicate wells, Fig 9 legend 30 minutes, 37°C. How it is done:
as §1, §2
Multiple comparisons versus control groups (Holm-Sidak method), Overall significance level P < 0,05.
The capability of the assay to identify previously described toxic drugs was explored through a pilot screening assay. We selected 13 compounds from a variety of therapeutic classes to perform a pilot screening assay using MitoTox Reporter cells and a standard multiplate reader. […] To perform the assays, we prepared master stocks for each compound in 0.2% DMSO. Assays were performed with compounds at final concentrations of 1, 5, and 10 μM and the response of MitoTox Reporter cells were measured at 5, 10, 30, and 60 minutes. […] As a negative control we selected a compound with no reported side-effects.

In the next experiment the test system is ATP. To be noted: read-out: IC50, ATP depletion; cited from earlier work.
Experiment [6] has as its system clonal MDA-MB-231 cells expressing Laconic. The experiment in a line: Single-cell lactate imaging of MitoTox Reporter cells. To be noted: 32 μM rotenone, 16 μM antimycin, 80 μM oligomycin, 10 μM myxothiazol. The experiment is classed as cell-based. An excerpt: To generate a cell system with a high signal-to-noise ratio suitable for standard multiplate readers, we developed a clonal cell line with high levels and homogeneous Laconic expression. To do so, we produced a lentivirus particle to infect and transduce Laconic in MDA-MB-231 cells. From pooled cells with diverse levels of Laconic expression we selected high expression clones through FACS. […] We termed this cell line “MitoTox Reporter”. Exposure of these cells to classical mitochondrial poisons produced a robust increase in the fluorescent signal, indicating acute toxicity-induced lactate accumulation. […] With this evidence in hand, cells were tested in a multi-well plate reader.
Fig 3 Characterization of “MitoTox reporter” cell line. A) Confocal images from FACS selected clonal MDA-MB-231 cells expressing Laconic. Size bars for 20x and 60x represent 100 μm and 10 μm, respectively. Cytosolic lactate accumulation induced by treatment with: B) 32 μM rotenone, C) 16 μM of antimycin, D) 80 μM of oligomycin, and 10 μM myxothiazol. Each trace is the average of ten cells from one representative experiment.

In experiment [7] the test system is HepG2 cells. Set-up: method as in Nadanaciva et al., 2012 [55]. To be noted: treatment time 0.03 hours; ref Nadanaciva et al., 2012 [55]; cited from earlier work.
Experiment [8] concerns HepG2 cells. Set-up: method as in Marroquin et al., 2007 [35]. Conditions: treatment time 24 hours; approximated IC50 directly from plotted data in the original paper; ref Marroquin et al., 2007 [35]; cited from earlier work.
The subject of another experiment is cell viability. Set-up: method as in Li et al., 2014 [50]. To be noted: treatment time 6 hours; ref Li et al., 2014 [50]; cited from earlier work.
Experiment [9] relates to HepG2 cells. Set-up: method as in Nadanaciva et al., 2012 [55]. To be noted: treatment time 0.03 hours; ref Nadanaciva et al., 2012 [55]; cited from earlier work. The source holds these as a separate data set.
Experiment [10] has as its system extracellular acidification. Set-up: method as in Hynes et al., 2013 [72]. To be noted: treatment time 0.13 hours; ref Hynes et al., 2013 [72]; cited from earlier work.
Experiment [11] deals with reactive oxygen species (ROS). Set-up: method as in Li et al., 2014 [50]. To be noted: treatment time 6 hours; ref Li et al., 2014 [50]; cited from earlier work.
In the next experiment the test system is glutathione (GSH). Set-up: method as in Li et al., 2014 [50]. Conditions: treatment time 6 hours; ref Li et al., 2014 [50]; cited from earlier work.
The next experiment relates to oxygen consumption. Set-up: method as in Hynes et al., 2013 [72]. Conditions: treatment time 0.13 hours; ref Hynes et al., 2013 [72]; cited from earlier work.

For the compound `[N-]=[N+]=[N-].[Na+]` [azide], in experiment [1], the “Cytosolic lactate accumulation in astrocytes” value is on record as “induced an acute cytosolic lactate accumulation”. In experiment [2], the IC50 stood at 1440 µM. The “Lactate accumulation (ΔR%) in 96-well plates without pCMBS” value with MitoTox reporter cells is “declined after 5 minutes”.

Take `Cc1c(C)c2c(c(C)c1O)CCC(C)(COc1ccc(CC3SC(=O)NC3=O)cc1)O2` (stereo not drawn) [troglitazone]: the IC50 in [3] is 176 µM; in the experiment on ATP it was 28 µM and 31.4 µM. Further, the EC50 in the experiment with HepG2 cells [4] was over 100 µM. Besides, the “ΔR% (lactate accumulation)” value in experiment [5] (5 μM) is “The effect was also detected”; in experiment [5] (10 μM), “over 14%”. Also, the “Concentration at which toxicity / mitochondrial effects were detected in the pilot screening” value in experiment [5] (tested at 1, 5 and 10 μM) was 5 µM.

Regarding antimycin, the “Cytosolic lactate accumulation in astrocytes” value in [1] (32 μM rotenone, 16 μM antimycin, 5 mM azide, 80 μM oligomycin, buffer without carbon sources) is listed as “induced an acute cytosolic lactate accumulation”. Also, in experiment [6], the “Intracellular lactate levels in MitoTox Reporter cells (single-cell)” value was “acute, fast, and robust increase of intracellular lactate levels”. Moreover, the IC50 is 2.1 µM in experiment [3]; 0.1 µM in the experiment on HepG2 cells [7]; 0.00024 µM in [2] (dose-response, treatment time 0.5 hours (Fig 8 legend: 10 minutes), 37°C); 0.006 µM in the experiment with HepG2 cells [8]; 291 µM in the experiment with cell viability; 0.004 µM in the experiment with HepG2 cells [9]. The IC50 in [10] is 0.074 µM; in experiment [11] it was 17.7 µM; in the experiment on glutathione (GSH) it was 228 µM; in the experiment with oxygen consumption it was 0.039 µM.

The values above are taken from PMC6822764, “MitoToxy assay: A novel cell-based method for the assessment of metabolic toxicity in a multiwell plate format using a lactate FRET nanosensor, Laconic” (PLoS ONE, 2019).
